Test results: BindingDB's records for doi:10.1016/j.bmcl.2013.05.031 (Second Military Medical University, 2013)
pIC50: −log10 of the molar value.

Biological target: Acrosin (Homo sapiens, UniProt P10323)
Test: Inhibition of human sperm acrosin using BAPNA as substrate after 3 hrs by spectrophotometric analysis

Acrosin, sequence (P10323 20-42 limits assumed): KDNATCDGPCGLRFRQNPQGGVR
Acrosin, sequence (P10323 43-343 limits assumed): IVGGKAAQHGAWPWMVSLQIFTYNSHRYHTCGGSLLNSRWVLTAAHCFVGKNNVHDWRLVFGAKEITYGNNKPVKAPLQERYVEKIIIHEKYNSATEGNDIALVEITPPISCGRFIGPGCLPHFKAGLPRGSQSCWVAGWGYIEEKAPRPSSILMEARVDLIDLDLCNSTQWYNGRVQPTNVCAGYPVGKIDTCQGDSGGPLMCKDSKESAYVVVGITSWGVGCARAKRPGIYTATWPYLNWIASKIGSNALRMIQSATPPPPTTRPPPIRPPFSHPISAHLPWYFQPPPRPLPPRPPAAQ

SMILES	pIC50
O=C(c1cc(-c2cccc([N+](=O)[O-])c2)n[nH]1)N(CCO)CCO	2.62
CC(CO)NC(=O)c1cc(-c2ccc(Br)cc2)n[nH]1 (stereo not drawn)	3.06
O=C(NCCOCCO)c1cc(-c2ccc([N+](=O)[O-])cc2)n[nH]1	2.68
O=C(c1cc(-c2ccc(Br)cc2)n[nH]1)N(CCO)CCO	2.82
O=C(NCCO)c1cc(-c2ccc(Br)cc2)[nH]n1	3.28
O=C(NCCO)c1cc(-c2ccccc2)n[nH]1	2.55
O=C(NC(CO)(CO)CO)c1cc(-c2ccc([N+](=O)[O-])cc2)[nH]n1	2.28
CC(O)CNC(=O)c1cc(-c2ccccc2)[nH]n1 (stereo not drawn)	4.22
O=Cc1cc(-c2ccc(Cl)cc2Cl)on1	3.41
CC(O)CN(CC(C)O)C(=O)c1cc(-c2ccc([N+](=O)[O-])cc2)n[nH]1 (stereo not drawn)	2.92
CN(CCO)C(=O)c1cc(-c2cccc([N+](=O)[O-])c2)n[nH]1	3.10
O=C(NCCO)c1cc(-c2cccc([N+](=O)[O-])c2)[nH]n1	3.12
CC(O)CNC(=O)c1cc(-c2cccc([N+](=O)[O-])c2)n[nH]1 (stereo not drawn)	2.74
CC(O)CNC(=O)c1cc(-c2ccc(Br)cc2)n[nH]1 (stereo not drawn)	3.48
CN(CCO)C(=O)c1cc(-c2ccc([N+](=O)[O-])cc2)n[nH]1	2.70
O=C(NC(CO)(CO)CO)c1cc(-c2ccccc2)n[nH]1	3.03
CC(O)CN(CC(C)O)C(=O)c1cc(-c2ccccc2)[nH]n1 (stereo not drawn)	5.00

SMILES	pIC50
O=C(c1cc(-c2ccc([N+](=O)[O-])cc2)n[nH]1)N(CCO)CCO	2.25
O=C(c1cc(-c2ccccc2)[nH]n1)N(CCO)CCO	2.77
COc1ccc(-c2cc(C(=O)N(C)CCO)n[nH]2)cc1	3.39
O=C(NCCCO)c1cc(-c2ccc([N+](=O)[O-])cc2)[nH]n1	2.51
O=C(NCCCO)c1cc(-c2ccc(Br)cc2)[nH]n1	3.42
O=C(NCCCO)c1cc(-c2cccc([N+](=O)[O-])c2)[nH]n1	3.11
COc1ccc(-c2cc(C(=O)NCCOCCO)[nH]n2)cc1	2.22
O=C(NC(CO)(CO)CO)c1cc(-c2cccc([N+](=O)[O-])c2)[nH]n1	3.12
CC(C)(CO)NC(=O)c1cc(-c2ccc([N+](=O)[O-])cc2)n[nH]1	2.73
O=C(NCCCO)c1cc(-c2ccccc2)[nH]n1	3.27
COc1ccc(-c2cc(C(=O)NCCO)[nH]n2)cc1	4.05
O=C(NCCOCCO)c1cc(-c2cccc([N+](=O)[O-])c2)n[nH]1	2.04
O=C(NCCO)c1cc(-c2ccc([N+](=O)[O-])cc2)n[nH]1	2.57
O=C(NCCOCCO)c1cc(-c2ccc(Br)cc2)[nH]n1	2.00
CC(O)CNC(=O)c1cc(-c2ccc([N+](=O)[O-])cc2)[nH]n1 (stereo not drawn)	2.53
CC(CO)NC(=O)c1cc(-c2ccccc2)[nH]n1 (stereo not drawn)	2.52
